Patent publication US4678750A, “Method and compositions for use in the treatment of fireblight” (Microlife Technics, Inc., priority 1984, dated 1987)

System: depolymerase from phage-infected E. amylovora NCPPB595
Assay: Effect of chemical agents on depolymerase activity (galactose release from polysaccharide)
Format: biochemical, phage ERA103 / Erwinia amylovora NCPPB595
Conditions: for Effect of agent on depolymerase activity (in words): Table 2; for Activity % Control: control assay without inhibitors
Procedure: Depolymerase activity was assayed by following the release of galactose from the polysaccharide substrate according to the method of Fairbridge (Fairbridge,R. A., et al. Biochem. J. 49:423-427 (1951)). The reaction mixture consisted of the following: 100 microliters of the appropriate enzyme solution and 100 microliters of polysaccharide (10 mg/ml) suspended in 0.01M citrate buffer, pH 6.0 containing 0.01M 2-mercaptoethanol. One unit of enzyme was defined as the amount of enzyme required to produce 1 micromole of galactose per minute under standard assay conditions.
Substrate Preparation. Polysaccharide was prepared from uninfected cultures of Erwinia amylovora NCPPB595 cultivated on sheets of cellophane overlaying Tryptic Soy agar, as decribed by Liu (Liu, P.V., et al., J. Infect. Dis. 108:218-228 (1961)). The polysaccharide was extracted from the slime layer according to the method of Liu.
The effect of various chemical agents on depolymerase activity can be seen in Table 2.

[1] = agent 10.0 millimoles per liter

Row | Molecule | Effect of agent on depolymerase activity (in words) | Activity % Control (agent 0.1 millimoles per liter) [% Control] | Activity % Control (agent 1.0 millimoles per liter) [% Control] | Activity % Control [1] [% Control]
1 | OCCS [2-Mercaptoethanol] | enhanced depolymerase activity substantially | 122 | 155 | 168
2 | Oc1cccc2cccnc12 [8-hydroxyquinoline] | insensitive | – | – | –
3 | OC(CS)C(O)CS (centres unmarked) [Dithiothreitol, 1,4 dimercapto-2,3-butanediol] | enhanced depolymerase activity substantially | 122 | 138 | 258
4 | O=C(O)CI [Iodoacetate] | no efect on enzymatic activity | 100 | 100 | 100
5 | CCN1C(=O)C=CC1=O [N--ethylmaleimide, N-ethylmaleimide] | no efect on enzymatic activity | 100 | 100 | 100
6 | [N-]=[N+]=[N-] [Sodium azide] | insensitive | 100 | 100 | 100
7 | O=C(O)c1cc[c]([Hg][Cl])cc1 [p-Chloromercuribenzoate] | inhibited the enzyme at all concentrations tested | 0 | 0 | 0
8 | ethylene-di-(o-hydroxyphenylacetate) | insensitive | 100 | 100 | 100
